# Assay results published in US9416129B2, “Tricyclic substituted thiadiazine dioxide compounds as BACE inhibitors, compositions and their use” (Merck Sharp & Dohme Corp., priority 2012, dated 2016).
# Experiments:
# human P-glycoprotein = human P-glycoprotein (Homo sapiens (Human), UniProt P08183); assay: Pgp Mdr1 efflux ratio; type: in vitro ADME; details: efflux ratio, human P-glycoprotein
# human autoBACE-2 = human autoBACE-2 (Homo sapiens (Human), UniProt Q9Y5Z0); assay: BACE-2 assay (BACE-HTRF, time-resolved endpoint proteolysis); type: biochemical; details: Ki calculated from IC50 using the Cheng-Prusoff equation; read-out: BACE2 Ki
# human autoBACE-2, sequence (Q9Y5Z0 63-473 limits assumed): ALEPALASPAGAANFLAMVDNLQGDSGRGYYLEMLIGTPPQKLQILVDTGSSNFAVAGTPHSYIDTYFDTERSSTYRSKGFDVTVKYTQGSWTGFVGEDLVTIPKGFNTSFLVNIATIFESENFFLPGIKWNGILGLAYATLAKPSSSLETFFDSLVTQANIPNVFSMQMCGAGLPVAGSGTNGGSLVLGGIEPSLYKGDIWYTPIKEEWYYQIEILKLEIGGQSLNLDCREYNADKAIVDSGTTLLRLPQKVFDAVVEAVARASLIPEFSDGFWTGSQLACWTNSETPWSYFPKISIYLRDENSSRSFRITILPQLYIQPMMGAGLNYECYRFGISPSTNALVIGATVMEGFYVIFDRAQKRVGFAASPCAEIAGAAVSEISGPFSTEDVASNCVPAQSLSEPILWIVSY
# Method: Inhibitor IC50s at purified human autoBACE-2 are determined in a time-resolved endpoint proteolysis assay that measures hydrolysis of the QSY7-[…]-Eu-amide FRET peptide substrate (BACE-HTRF assay). […] DMSO is present at 5% final concentration in the assay. Following laser excitation of sample wells at 320 nm, the fluorescence signal at 620 nm is collected for 400 ms following a 50 μs delay on a RUBYstar HTRF plate reader (BMG Labtechnologies). Raw RFU data is normalized to maximum (1.0 nM BACE/DMSO) and minimum (no enzyme/DMSO) RFU values. […] The Ki values are calculated from the IC50 using the Cheng-Prusoff equation.
# [1] = target: soluble human BACE1 catalytic domain (Homo sapiens (Human), UniProt P56817); assay: BACE1 HTRF FRET assay; type: biochemical; details: Ki calculated from IC50 using the Cheng-Prusoff equation
# soluble human BACE1 catalytic domain, sequence (P56817 75-416): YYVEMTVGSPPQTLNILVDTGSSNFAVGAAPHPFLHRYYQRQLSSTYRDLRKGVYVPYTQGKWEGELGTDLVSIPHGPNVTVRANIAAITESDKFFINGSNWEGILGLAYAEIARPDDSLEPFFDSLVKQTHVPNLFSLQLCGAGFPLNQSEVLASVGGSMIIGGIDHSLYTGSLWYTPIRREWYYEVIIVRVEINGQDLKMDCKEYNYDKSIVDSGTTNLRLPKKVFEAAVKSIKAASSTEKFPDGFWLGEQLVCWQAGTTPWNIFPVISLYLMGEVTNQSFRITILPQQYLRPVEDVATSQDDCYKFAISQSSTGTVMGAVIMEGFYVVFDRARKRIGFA
# Description: Na^+-Acetate pH 5.0; 1% Brij-35; Glycerol; Dimethyl Sulfoxide (DMSO); Recombinant human soluble BACE1 catalytic domain (>95% pure); APP Swedish mutant peptide substrate (QSY7-APP^swe-Eu): QSY7-[…]-Europium-amide.
# A homogeneous time-resolved FRET assay can be used to determine IC50 values for inhibitors of the soluble human BACE1 catalytic domain. This assay monitors the increase of 620 nm fluorescence that resulted from BACE1 cleavage of an APPswedish APP^swe mutant peptide FRET substrate (QSY7-[…]-Europium-amide). This substrate contains an N-terminal QSY7 moiety that serves as a quencher of the C-terminal Europium fluorophore (620 nm Em). In the absence of enzyme activity, 620 nm fluorescence is low in the assay and increased linearly over 3 hours in the presence of uninhibited BACE1 enzyme Inhibition of BACE1 cleavage of the QSY7-APP^swe-Eu substrate by inhibitors is manifested as a suppression of 620 nm fluorescence.
# Varying concentrations of inhibitors at 3× the final desired concentration in a volume of 10 ul are preincubated with purified human BACE1 catalytic domain (3 nM in 10 μl) for 30 minutes at 30° C. in reaction buffer containing 20 mM Na-Acetate pH 5.0, 10% glycerol, 0.1% Brij-35 and 7.5% DSMO. Reactions are initiated by addition of 10 μl of 600 nM QSY7-APP^swe-Eu substrate (200 nM final) to give a final reaction volume of […] in a 384 well Nunc HTRF plate. The reactions are incubated at 30° C. for 1.5 hours. The 620 nm fluorescence is then read on a Rubystar HTRF plate reader (BMG Labtechnologies) using a 50 millisecond delay followed by a 400 millisecond acquisition time window. Inhibitor IC50 values are derived from non-linear regression analysis of concentration response curves.
# human P-glycoprotein, sequence (P08183 whole entry): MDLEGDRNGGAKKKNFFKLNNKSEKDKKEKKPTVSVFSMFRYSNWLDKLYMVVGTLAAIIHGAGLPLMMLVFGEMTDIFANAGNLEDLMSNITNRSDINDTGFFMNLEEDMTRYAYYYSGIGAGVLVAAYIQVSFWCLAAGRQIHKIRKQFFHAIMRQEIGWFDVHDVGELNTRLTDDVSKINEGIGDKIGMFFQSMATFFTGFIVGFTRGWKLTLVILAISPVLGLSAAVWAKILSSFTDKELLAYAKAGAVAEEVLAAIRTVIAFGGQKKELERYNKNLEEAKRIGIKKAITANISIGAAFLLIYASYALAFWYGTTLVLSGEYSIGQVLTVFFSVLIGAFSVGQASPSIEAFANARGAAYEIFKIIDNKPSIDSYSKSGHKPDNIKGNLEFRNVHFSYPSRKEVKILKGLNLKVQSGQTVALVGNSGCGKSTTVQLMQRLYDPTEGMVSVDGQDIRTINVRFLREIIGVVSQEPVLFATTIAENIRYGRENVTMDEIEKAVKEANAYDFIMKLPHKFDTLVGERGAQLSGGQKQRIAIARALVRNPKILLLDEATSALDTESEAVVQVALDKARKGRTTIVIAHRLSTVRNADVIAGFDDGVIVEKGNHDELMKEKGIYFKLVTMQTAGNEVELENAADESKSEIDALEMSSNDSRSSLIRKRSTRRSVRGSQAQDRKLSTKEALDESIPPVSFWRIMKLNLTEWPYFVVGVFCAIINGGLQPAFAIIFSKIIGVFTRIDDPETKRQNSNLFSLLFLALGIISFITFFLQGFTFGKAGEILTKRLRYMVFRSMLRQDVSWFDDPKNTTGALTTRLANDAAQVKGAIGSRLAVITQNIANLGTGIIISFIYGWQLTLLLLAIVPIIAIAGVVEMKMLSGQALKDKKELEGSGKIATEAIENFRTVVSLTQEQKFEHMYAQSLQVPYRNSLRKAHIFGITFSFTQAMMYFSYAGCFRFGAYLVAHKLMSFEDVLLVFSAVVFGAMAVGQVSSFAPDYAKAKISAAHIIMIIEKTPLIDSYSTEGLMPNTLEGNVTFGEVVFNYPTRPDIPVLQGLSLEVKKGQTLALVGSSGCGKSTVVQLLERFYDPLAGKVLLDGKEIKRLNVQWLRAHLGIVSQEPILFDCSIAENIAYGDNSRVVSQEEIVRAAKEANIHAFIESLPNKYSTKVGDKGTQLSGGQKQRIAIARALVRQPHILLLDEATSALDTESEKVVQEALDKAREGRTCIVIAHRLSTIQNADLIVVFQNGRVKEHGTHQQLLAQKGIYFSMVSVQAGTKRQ
Compound,Pgp Mdr1 ER (human P-glycoprotein),Ki (human autoBACE-2) [nM],Ki [1] [nM]
CN1C(=N)N[C@](C)(c2sc3c(-c4ccc(-c5ccncc5)cc4)cccc3c2F)CS1(=O)=O [Example 84],–,764,351
CN1C(=N)N[C@](C)(c2sc3c(-c4ccc(-n5nccn5)cc4)nccc3c2Cl)CS1(=O)=O [Example 99],–,855,224
CCCc1cnn(-c2ccc(-c3nccc4c(Cl)c([C@]5(C)CS(=O)(=O)N(C)C(=N)N5)sc34)c(F)c2)c1 [Example 117],–,35,259
CN1C(=N)N[C@](C)(c2sc3c(-c4ccc(-n5ccnn5)cc4)nccc3c2Cl)CS1(=O)=O [Example 104],–,36,86.1
CN1C(=N)N[C@](C)(c2sc3c(-c4ccc(-c5cc(C(F)(F)F)n[nH]5)cc4)nccc3c2Cl)CS1(=O)=O [Example 98],–,6.7,425
CN1C(=N)N[C@](C)(c2sc(-c3cccc(-c4ccccc4)c3)cc2Cl)CS1(=O)=O [Example 62],–,1.6,161
CN1CCN(c2ccc(-c3cccc4c(F)c([C@]5(C)CS(=O)(=O)N(C)C(=N)N5)sc34)cc2)CC1 [Example 95],–,2030,9760
CN1C(=N)N[C@](C)(c2cc(-c3cncc(-c4cnco4)c3)cs2)CS1(=O)=O [Example 22],–,98,85.9
CN1C(=N)N[C@](C)(c2sc3c(-c4ccc(-c5nccs5)cc4)nccc3c2Cl)CS1(=O)=O [Example 106],–,1640,270
COc1cnn(-c2ccc(-c3nccc4c(Cl)c([C@]5(C)CS(=O)(=O)N(C)C(=N)N5)sc34)c(F)c2)c1 [Example 115],–,267,17.7
COc1ccnc(N2CCN(c3nccc4c(Cl)c([C@]5(C)CS(=O)(=O)N(C)C(=N)N5)sc34)CC2)c1 [Example 121],–,1260,1860
CN1C(=N)N[C@](C)(c2sc3c(-c4ccc(-n5ccnn5)cc4)cccc3c2F)CS1(=O)=O [Example 83],–,148,19
CN1C(=N)N[C@](C)(c2sc3c(-c4ccc(-c5nccs5)cc4)cccc3c2F)CS1(=O)=O [Example 91],–,1350,797
Cc1occc1-c1ccc(-c2nccc3c(Cl)c([C@]4(C)CS(=O)(=O)N(C)C(=N)N4)sc23)c(F)c1 [Example 109],–,87,525
CN1C(=N)N[C@](C)(c2sc(-c3ccc(-c4cccnc4)cc3)cc2Cl)CS1(=O)=O [Example 64],–,1040,2100
CN1C(=N)N[C@](C)(c2sc3c(-c4ccc(-c5nccn5C)cc4)cccc3c2F)CS1(=O)=O [Example 86],–,3300,5620
CN1C(=N)N[C@](C)(c2cc(-c3cc(F)cc(-c4nnco4)c3)ccc2F)CS1(=O)=O [Example 30],–,235,869
CN1C(=N)N[C@](C)(c2sc3c(-c4ccc(-n5nccn5)cc4)cccc3c2F)CS1(=O)=O [Example 92],–,1660,1660
Cc1cnn(-c2ccc(-c3nccc4c(Cl)c([C@]5(C)CS(=O)(=O)N(C)C(=N)N5)sc34)c(F)c2)c1 [Example 119],–,417,189
CN1C(=N)N[C@](C)(c2sc3c(-c4ccc(N5CCOCC5)nc4)cccc3c2F)CS1(=O)=O [Example 94],–,9520,1500
CN1C(=N)N[C@](C)(c2cc(-c3cc(F)cc(-c4cnco4)c3)cs2)CS1(=O)=O [Example 24],–,18,81

# More lines, now with the values ahead:
Pgp Mdr1 ER (human P-glycoprotein),Ki (human autoBACE-2) [nM],Ki [1] [nM],Compound
0.70,0.41,3.3,CN1C(=N)N[C@](C)(c2sc(-c3cccc(-c4ncon4)c3)cc2Cl)CS1(=O)=O [Example 46]
–,270,19.7,CN1C(=N)N[C@](C)(c2sc3c(-c4ccc(-c5ccoc5)cc4F)nccc3c2Cl)CS1(=O)=O [Example 107]
–,26,67.2,Cc1cn(-c2cc(-c3cc(F)c([C@]4(C)CS(=O)(=O)N(C)C(=N)N4)s3)ccn2)cn1 [Example 72]
–,42,693,CN1C(=N)N[C@](C)(c2sc(-c3cccc(N4CCS(=O)(=O)CC4)c3)cc2Cl)CS1(=O)=O [Example 61]
–,1.3,1.2,CN1C(=N)N[C@](C)(c2sc(-c3cc(F)cc(-c4nnco4)c3)cc2F)CS1(=O)=O [Example 29]
–,9.9,419,CN1C(=N)N[C@](C)(c2sc(-c3cccc(-c4nc(C5CC5)no4)c3)cc2Cl)CS1(=O)=O [Example 39]
–,17,498,CN1C(=N)N[C@](C)(c2sc(-c3ccnc(-c4nc(C5CC5)no4)c3)cc2F)CS1(=O)=O [Example 52]
–,0.28,0.5,CN1C(=N)N[C@](C)(c2sc(-c3cc(F)cc(-c4nnco4)c3)cc2Cl)CS1(=O)=O [Example 28]
–,247,1150,CN1C(=N)N[C@](C)(c2sc(-c3cccc(-c4nnco4)c3F)cc2F)CS1(=O)=O [Example 36]
–,1610,3520,CN1C(=N)N[C@](C)(c2sc(-c3ccc(-c4ccccn4)cc3)cc2Cl)CS1(=O)=O [Example 65]
–,252,105,CN1C(=N)N[C@](C)(c2sc3c(-c4ccc(-c5cncs5)cc4F)nccc3c2Cl)CS1(=O)=O [Example 113]
–,6,1.6,CN1C(=N)N[C@](C)(c2sc(-c3cccc(-c4nnco4)c3)cc2Cl)CS1(=O)=O [Example 1]
–,19,35.2,CN1C(=N)N[C@](C)(c2sc3c(-c4ccc(-c5cnco5)cc4F)nccc3c2Cl)CS1(=O)=O [Example 108]
–,0.31,6.9,CN1C(=N)N[C@](C)(c2sc(-c3cncc(-c4ncco4)c3)cc2Cl)CS1(=O)=O [Example 9]
–,214,104,CN1C(=N)N[C@](C)(c2sc3c(-c4ccc(-c5ncco5)cc4)cccc3c2F)CS1(=O)=O [Example 90]
–,44,566,CN1C(=N)N[C@](C)(c2sc(-c3cncc(-c4nnc(C5CC5)o4)c3)cc2Cl)CS1(=O)=O [Example 57]
–,13.8,1.7,CN1C(=N)N[C@](C)(c2sc(-c3cccc(-c4nnco4)c3)cc2F)CS1(=O)=O [Example 2]
–,4.2,1.7,CN1C(=N)N[C@](C)(c2sc(-c3cc(-c4nnco4)ccc3F)cc2Cl)CS1(=O)=O [Example 31]
–,123,338,CN1C(=N)N[C@](C)(c2sc(-c3ccnc(-c4ccncc4)c3)cc2F)CS1(=O)=O [Example 73]
–,10,5.5,CN1C(=N)N[C@](C)(c2sc(-c3ccc(F)c(-c4nnco4)c3)cc2Cl)CS1(=O)=O [Example 33]
–,122,199,CN1C(=N)N[C@](C)(c2sc(-c3ccnc(-c4cccnc4)c3)cc2F)CS1(=O)=O [Example 74]
–,27,197,CN1C(=N)N[C@](C)(c2sc3c(-c4ccc(-c5ccnn5C)cc4F)nccc3c2Cl)CS1(=O)=O [Example 111]
–,152,13.8,CN1C(=N)N[C@](C)(c2ncc(-c3cccc(-c4nnco4)c3)s2)CS1(=O)=O [Example 27]
–,134,330,CN1C(=N)N[C@](C)(c2sc3c(-c4ccc(-c5cn[nH]c5)cc4F)nccc3c2Cl)CS1(=O)=O [Example 114]
–,12,132,CN1C(=N)N[C@](C)(c2sc(-c3ccnc(-c4ccccc4)c3)cc2F)CS1(=O)=O [Example 54]
–,9520,327,CN1C(=N)N[C@](C)(c2sc3c(-c4ccc(C5CC5)nc4)cccc3c2F)CS1(=O)=O [Example 96]
–,3,323,CN1C(=N)N[C@](C)(c2sc(-c3cccc(-c4noc(C5CC5)n4)c3)cc2F)CS1(=O)=O [Example 45]
–,4.6,25.9,Cc1noc(-c2cccc(-c3cc(Cl)c([C@]4(C)CS(=O)(=O)N(C)C(=N)N4)s3)c2)n1 [Example 37]
–,0.35,10.7,CN1C(=N)N[C@](C)(c2sc(-c3cccc(-c4cc[nH]n4)c3)cc2F)CS1(=O)=O [Example 4]
–,1,15.7,CN1C(=N)N[C@](C)(c2sc(-c3cncc(-c4ncco4)c3)cc2F)CS1(=O)=O [Example 10]
